12 compounds from article PMC7531004, “Discovery of gramicidin A analogues with altered activities by multidimensional screening of a one-bead-one-compound library” (Nature Communications, 2020) can be followed below.

Series [1] can be described thus: H+/Na+ transport assay of bead-derived peptides (one-point).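 Further: relative to parent gramicidin A activity set to 1.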 The format is biochemical. More on the design: key: relative activity; mean of two control wells = 1.00. The conditions noted are these: bead-derived peptide solution, EYPC/EYPG LUVs. The procedure, abridged:
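Miniaturized 96-well format. LUVs with entrapped pyranine (1.0 mM) were exposed to peptide for 30 min at RT. Intensities were expressed relative to full lysis by Triton X-100 and no treatment, with control-well mean = 1.00.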

In series [2] the test system is P388 mouse leukemia cells. The conditions noted are these: 92 h. The procedure, abridged:
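P388 cells at 1 × 10^4 cells/mL (final) were exposed to library peptides (stocks diluted 250-fold in RPMI1640/10% FBS) for 92 h at 37 °C, 5% CO2. Viable cells were counted by WST-1/1-methoxy PMS (4 h), absorbance 415 nm, and expressed as cell viability (%).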

In series [3] the test system is Streptococcus pyogenes SSI-9. The series can be described thus: Antibacterial activity assay of bead-derived peptides (three concentrations). It counts as cell-based. The arrangement: key: +++: inhibition by the 640-fold diluted peptide solution; ++: inhibition by the 160-fold diluted solution; +: inhibition by the 40-fold diluted solution; -: no inhibition. The conditions noted are these: S. pyogenes, bead-derived peptide solution, three concentrations. The procedure, abridged: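 Undiluted, 4-fold and 16-fold DMSO-diluted peptide stocks; S. pyogenes SSI-9, 2 × 10^5 CFU, cation-adjusted MHB (50 mg/L Ca2+, 25 mg/L Mg2+) + 5% laked horse blood; 37 °C, 18 h; readout = cell pellet visible or not.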

Structures are written as SMILES. Where a SMILES comes first, the peptide text is derived from it. [ ]: non-standard residue; d: D form. The star is where a group is joined. NHCH2CH2OH = OCCN*; For = O=C*

In the case of `CC(C)C[C@@H](NC(=O)[C@H](Cc1c[nH]c2ccccc12)NC(=O)[C@H](NC(=O)[C@H](Cc1c[nH]c2ccccc12)NC(=O)[C@H](NC(=O)[C@H](Cc1c[nH]c2ccccc12)NC(=O)[C@H](NC(=O)[C@@H](NC(=O)[C@H](NC(=O)[C@H](C)NC(=O)[C@H](NC(=O)[C@H](C)NC(=O)CNC(=O)[C@@H](NC=O)C(C)C)C(C)C)C(C)C)C(C)C)C(C)C)C(C)C)C(C)C)C(=O)N[C@@H](Cc1c[nH]c2ccccc12)C(=O)NCCO` [compound 2182] (For-VGA[dV]A[dV]V[dV]W[dV]W[dV]W[dL]W-NHCH2CH2OH), the “H+/Na+ transport activity normalized against the value of 1 (1.00)” value (from here on “H+/Na+ transport activity normalized”) in series [1] is given as 1.28. The cell viability/% in series [2] was 100.0%. The antibacterial activity result in series [3] is “++”.

In the case of `CC(C)C[C@@H](NC(=O)[C@H](C)NC(=O)CNC(=O)[C@@H](NC=O)C(C)C)C(=O)N[C@@H](C)C(=O)N[C@H](CC(C)C)C(=O)N[C@H](C(=O)N[C@H](CC(C)C)C(=O)N[C@@H](Cc1c[nH]c2ccccc12)C(=O)N[C@H](CC(C)C)C(=O)N[C@@H](Cc1c[nH]c2ccccc12)C(=O)N[C@H](CC(C)C)C(=O)N[C@@H](Cc1c[nH]c2ccccc12)C(=O)N[C@@H](C(=O)N[C@@H](Cc1c[nH]c2ccccc12)C(=O)NCCO)C(C)C)C(C)C` [compound 2205] (For-VGA[dL]A[dL]V[dL]W[dL]W[dL]W[dV]W-NHCH2CH2OH), the “H+/Na+ transport activity normalized” value in series [1] is 1.01. Moreover, the cell viability/% in series [2] amounted to 0.0%. For the same compound, in series [3], the antibacterial activity result is reported as “-”.

As for `CC(C)C[C@@H](NC(=O)[C@H](C)NC(=O)[C@H](NC(=O)[C@H](C)NC(=O)CNC(=O)[C@@H](NC=O)C(C)C)C(C)C)C(=O)N[C@H](C(=O)N[C@H](CC(C)C)C(=O)N[C@@H](Cc1c[nH]c2ccccc12)C(=O)N[C@@H](C(=O)N[C@@H](Cc1c[nH]c2ccccc12)C(=O)N[C@@H](C(=O)N[C@@H](Cc1c[nH]c2ccccc12)C(=O)N[C@@H](C(=O)N[C@@H](Cc1c[nH]c2ccccc12)C(=O)NCCO)C(C)C)C(C)C)C(C)C)C(C)C` [compound 2212] (For-VGA[dV]A[dL]V[dL]W[dV]W[dV]W[dV]W-NHCH2CH2OH), the “H+/Na+ transport activity normalized” value in series [1] was found to be 1.18. Further, the cell viability/% in series [2] is on record as 11.5%. In series [3], the antibacterial activity entry is recorded as “+”.

For the compound `CNC(=O)C[C@@H](NC(=O)[C@@H](NC(=O)[C@H](NC(=O)[C@H](C)NC(=O)[C@H](NC(=O)[C@H](C)NC(=O)CNC(=O)[C@@H](NC=O)C(C)C)C(C)C)C(C)C)C(C)C)C(=O)N[C@@H](Cc1c[nH]c2ccccc12)C(=O)N[C@H](CC(C)C)C(=O)N[C@@H](Cc1c[nH]c2ccccc12)C(=O)N[C@H](CC(C)C)C(=O)N[C@@H](Cc1c[nH]c2ccccc12)C(=O)N[C@H](CC(C)C)C(=O)N[C@@H](Cc1c[nH]c2ccccc12)C(=O)NCCO` [compound 2218] (For-VGA[dV]A[dV]V[dD](NHMe)W[dL]W[dL]W[dL]W-NHCH2CH2OH), in series [1], the “H+/Na+ transport activity normalized” value came to 1.32. Moreover, the cell viability/% in series [2] is reported as 100.0%. Moreover, in series [3], the antibacterial activity entry is on record as “-”.

Turning to `CC(C)C[C@@H](NC(=O)[C@H](C)NC(=O)CNC(=O)[C@@H](NC=O)C(C)C)C(=O)N[C@@H](C)C(=O)N[C@@H](C(=O)N[C@H](C(=O)N[C@@H](C(=O)N[C@@H](Cc1c[nH]c2ccccc12)C(=O)N[C@H](CC(C)C)C(=O)N[C@@H](Cc1c[nH]c2ccccc12)C(=O)N[C@H](CC(C)C)C(=O)N[C@@H](Cc1c[nH]c2ccccc12)C(=O)N[C@@H](C(=O)N[C@@H](Cc1c[nH]c2ccccc12)C(=O)NCCO)C(C)C)[C@H](C)O)C(C)C)C(C)C` [compound 2235] (For-VGA[dL]A[dV]V[dT]W[dL]W[dL]W[dV]W-NHCH2CH2OH), in series [1], the “H+/Na+ transport activity normalized” value came out at 1.01. The same compound showed a cell viability/% in series [2] of 100.0%. Further, the antibacterial activity entry in series [3] is given as “+”.

Take `CC(C)C[C@@H](NC(=O)[C@H](C)NC(=O)[C@H](NC(=O)[C@H](C)NC(=O)CNC(=O)[C@@H](NC=O)C(C)C)[C@H](C)O)C(=O)N[C@H](C(=O)N[C@H](CC(C)C)C(=O)N[C@@H](Cc1c[nH]c2ccccc12)C(=O)N[C@@H](C(=O)N[C@@H](Cc1c[nH]c2ccccc12)C(=O)N[C@@H](C(=O)N[C@@H](Cc1c[nH]c2ccccc12)C(=O)N[C@H](CC(C)C)C(=O)N[C@@H](Cc1c[nH]c2ccccc12)C(=O)NCCO)C(C)C)C(C)C)C(C)C` [compound 2242] (For-VGA[dT]A[dL]V[dL]W[dV]W[dV]W[dL]W-NHCH2CH2OH): the “H+/Na+ transport activity normalized” value in series [1] is listed as 1.15. For the same compound, the cell viability/% in series [2] was 100.0%. For the same compound, the antibacterial activity entry in series [3] is listed as “-”.

`CC(C)C[C@@H](NC(=O)[C@H](C)NC(=O)CNC(=O)[C@@H](NC=O)C(C)C)C(=O)N[C@@H](C)C(=O)N[C@H](CC(C)C)C(=O)N[C@H](C(=O)N[C@H](CC(C)C)C(=O)N[C@@H](Cc1c[nH]c2ccccc12)C(=O)N[C@H](CC(C)C)C(=O)N[C@@H](Cc1c[nH]c2ccccc12)C(=O)N[C@@H](C(=O)N[C@@H](Cc1c[nH]c2ccccc12)C(=O)N[C@H](CC(C)C)C(=O)N[C@@H](Cc1c[nH]c2ccccc12)C(=O)NCCO)[C@H](C)O)C(C)C` [compound 2283] (For-VGA[dL]A[dL]V[dL]W[dL]W[dT]W[dL]W-NHCH2CH2OH): the “H+/Na+ transport activity normalized” value in series [1] amounted to 1.07. Besides, in series [2], the cell viability/% turned out to be 100.0%. Besides, the antibacterial activity entry in series [3] was “-”.

With `CNC(=O)C[C@@H](NC(=O)[C@@H](NC(=O)[C@@H](CC(C)C)NC(=O)[C@H](C)NC(=O)[C@@H](CC(C)C)NC(=O)[C@H](C)NC(=O)CNC(=O)[C@@H](NC=O)C(C)C)C(C)C)C(=O)N[C@@H](Cc1c[nH]c2ccccc12)C(=O)N[C@H](CC(C)C)C(=O)N[C@@H](Cc1c[nH]c2ccccc12)C(=O)N[C@H](CC(C)C)C(=O)N[C@@H](Cc1c[nH]c2ccccc12)C(=O)N[C@H](CC(C)C)C(=O)N[C@@H](Cc1c[nH]c2ccccc12)C(=O)NCCO` [compound 2444] (For-VGA[dL]A[dL]V[dD](NHMe)W[dL]W[dL]W[dL]W-NHCH2CH2OH), the “H+/Na+ transport activity normalized” value in series [1] was 1.32. Besides, in series [2], the cell viability/% is given as 100.0%. For the same compound, the antibacterial activity result in series [3] is recorded as “-”.

On to `CNC(=O)C[C@@H](NC(=O)[C@H](Cc1c[nH]c2ccccc12)NC(=O)[C@@H](CC(C)C)NC(=O)[C@H](Cc1c[nH]c2ccccc12)NC(=O)[C@H](NC(=O)[C@H](Cc1c[nH]c2ccccc12)NC(=O)[C@@H](CC(C)C)NC(=O)[C@@H](NC(=O)[C@H](NC(=O)[C@H](C)NC(=O)[C@H](NC(=O)[C@H](C)NC(=O)CNC(=O)[C@@H](NC=O)C(C)C)C(C)C)C(C)C)C(C)C)C(C)C)C(=O)N[C@@H](Cc1c[nH]c2ccccc12)C(=O)NCCO` [compound 2526] (For-VGA[dV]A[dV]V[dL]W[dV]W[dL]W[dD](NHMe)W-NHCH2CH2OH), for which the “H+/Na+ transport activity normalized” value in series [1] is on record as 1.02. Also, in series [2], the cell viability/% is listed as 100.0%. For the same compound, in series [3], the antibacterial activity entry is “-”.

Turning to `CC(C)C[C@@H](NC(=O)[C@H](Cc1c[nH]c2ccccc12)NC(=O)[C@H](NC(=O)[C@H](Cc1c[nH]c2ccccc12)NC(=O)[C@H](NC(=O)[C@H](Cc1c[nH]c2ccccc12)NC(=O)[C@@H](CC(C)C)NC(=O)[C@@H](NC(=O)[C@H](NC(=O)[C@H](C)NC(=O)[C@H](NC(=O)[C@H](C)NC(=O)CNC(=O)[C@@H](NC=O)C(C)C)[C@H](C)O)C(C)C)C(C)C)C(C)C)C(C)C)C(=O)N[C@@H](Cc1c[nH]c2ccccc12)C(=O)NCCO` [compound 2532] (For-VGA[dT]A[dV]V[dL]W[dV]W[dV]W[dL]W-NHCH2CH2OH), in series [1], the “H+/Na+ transport activity normalized” value was found to be 1.22. This compound gave a cell viability/% in series [2] of 100.0%. Besides, the antibacterial activity entry in series [3] was “-”.

With `CC(C)C[C@@H](NC(=O)[C@H](Cc1c[nH]c2ccccc12)NC(=O)[C@H](NC(=O)[C@H](Cc1c[nH]c2ccccc12)NC(=O)[C@@H](CC(C)C)NC(=O)[C@@H](NC(=O)[C@H](NC(=O)[C@H](C)NC(=O)[C@H](NC(=O)[C@H](C)NC(=O)CNC(=O)[C@@H](NC=O)C(C)C)C(C)C)C(C)C)C(C)C)C(C)C)C(=O)N[C@@H](Cc1c[nH]c2ccccc12)C(=O)N[C@@H](C(=O)N[C@@H](Cc1c[nH]c2ccccc12)C(=O)NCCO)C(C)C` [compound 2554] (For-VGA[dV]A[dV]V[dL]W[dV]W[dL]W[dV]W-NHCH2CH2OH), the “H+/Na+ transport activity normalized” value in series [1] is reported as 1.06. This compound yielded a cell viability/% in series [2] of 9.2%. In addition, in series [3], the antibacterial activity entry was “++”.

Consider `CC(C)C[C@@H](NC(=O)[C@H](Cc1c[nH]c2ccccc12)NC(=O)[C@H](NC(=O)[C@H](Cc1c[nH]c2ccccc12)NC(=O)[C@H](NC(=O)[C@H](Cc1c[nH]c2ccccc12)NC(=O)[C@@H](CC(C)C)NC(=O)[C@@H](NC(=O)[C@H](NC(=O)[C@H](C)NC(=O)[C@H](NC(=O)[C@H](C)NC(=O)CNC(=O)[C@@H](NC=O)C(C)C)C(C)C)C(C)C)C(C)C)C(C)C)[C@H](C)O)C(=O)N[C@@H](Cc1c[nH]c2ccccc12)C(=O)NCCO` [compound 2580] (For-VGA[dV]A[dV]V[dL]W[dV]W[dT]W[dL]W-NHCH2CH2OH), for which the “H+/Na+ transport activity normalized” value in series [1] was 1.00. Besides, the cell viability/% in series [2] came out at 100.0%. Moreover, in series [3], the antibacterial activity result is “-”.
